PMC9551036, “A selective and orally bioavailable VHL-recruiting PROTAC achieves SMARCA2 degradation in vivo” (Nature Communications, 2022)
Where “and” joins values, the source holds several entries; their conditions need not be identical. Identical values can stand only once. Like-named read-outs stand apart in the source and are kept apart here.

Assays:
[1] = biological target: T1, SMARCA4 (Homo sapiens, UniProt P51532); assay: SMARCA4 capillary electrophoresis protein assay in RKO cells; format: cell-based; design: endogenous in cells; host or cells: RKO, HCT116, LU99, HCC-364, HCT-15, HCC4006, SK-N-AS; conditions: mean ± SD
T1 sequence (P51532 whole entry): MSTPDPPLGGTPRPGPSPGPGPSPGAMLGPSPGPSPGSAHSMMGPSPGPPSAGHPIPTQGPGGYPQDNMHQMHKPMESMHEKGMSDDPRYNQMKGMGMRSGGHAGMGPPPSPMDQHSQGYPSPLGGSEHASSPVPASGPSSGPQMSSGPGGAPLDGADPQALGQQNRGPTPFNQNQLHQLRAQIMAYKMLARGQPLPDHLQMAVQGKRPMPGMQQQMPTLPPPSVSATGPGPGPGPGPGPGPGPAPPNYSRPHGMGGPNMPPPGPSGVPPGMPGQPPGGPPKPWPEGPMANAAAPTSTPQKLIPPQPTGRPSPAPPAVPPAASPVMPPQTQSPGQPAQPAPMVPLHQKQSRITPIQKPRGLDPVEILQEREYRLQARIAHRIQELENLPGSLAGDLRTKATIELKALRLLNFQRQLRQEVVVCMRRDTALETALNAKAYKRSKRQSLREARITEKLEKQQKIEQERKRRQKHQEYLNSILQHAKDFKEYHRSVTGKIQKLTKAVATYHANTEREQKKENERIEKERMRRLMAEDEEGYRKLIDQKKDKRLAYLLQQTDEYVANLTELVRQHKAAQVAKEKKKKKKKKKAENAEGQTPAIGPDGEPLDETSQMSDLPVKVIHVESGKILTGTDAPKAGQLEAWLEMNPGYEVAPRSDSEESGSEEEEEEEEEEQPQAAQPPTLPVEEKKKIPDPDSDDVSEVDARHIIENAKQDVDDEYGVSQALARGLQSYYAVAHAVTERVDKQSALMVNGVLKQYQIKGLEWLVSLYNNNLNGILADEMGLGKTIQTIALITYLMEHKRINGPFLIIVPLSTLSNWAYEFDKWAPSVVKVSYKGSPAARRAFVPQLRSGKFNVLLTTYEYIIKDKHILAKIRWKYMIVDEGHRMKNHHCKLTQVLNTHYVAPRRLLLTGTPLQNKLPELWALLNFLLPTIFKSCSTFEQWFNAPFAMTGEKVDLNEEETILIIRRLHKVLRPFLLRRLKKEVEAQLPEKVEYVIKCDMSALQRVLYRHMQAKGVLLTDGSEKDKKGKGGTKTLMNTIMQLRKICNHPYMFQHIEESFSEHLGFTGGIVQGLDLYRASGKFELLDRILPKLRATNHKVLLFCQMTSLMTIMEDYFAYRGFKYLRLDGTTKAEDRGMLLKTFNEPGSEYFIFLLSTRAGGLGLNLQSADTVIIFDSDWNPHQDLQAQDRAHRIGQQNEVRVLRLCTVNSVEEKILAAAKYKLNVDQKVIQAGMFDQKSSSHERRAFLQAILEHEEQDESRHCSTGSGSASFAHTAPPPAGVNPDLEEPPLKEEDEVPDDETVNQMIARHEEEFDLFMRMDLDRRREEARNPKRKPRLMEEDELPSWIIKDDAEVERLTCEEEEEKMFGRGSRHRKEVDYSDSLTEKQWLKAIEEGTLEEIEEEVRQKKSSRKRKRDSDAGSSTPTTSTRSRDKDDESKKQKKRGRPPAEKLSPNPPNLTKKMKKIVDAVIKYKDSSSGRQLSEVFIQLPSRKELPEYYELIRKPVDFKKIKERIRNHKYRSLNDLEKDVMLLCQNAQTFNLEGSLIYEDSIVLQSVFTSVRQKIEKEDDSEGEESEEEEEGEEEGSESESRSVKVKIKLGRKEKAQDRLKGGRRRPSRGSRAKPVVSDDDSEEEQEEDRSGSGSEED
Protocol: 130,000–200,000 cells were seeded in 24-well plates and incubated until settled down or overnight. Compounds were dissolved in DMSO and added to cells in indicated concentrations using a digital dispenser following an optional media change. Cells were incubated for 4 or 18 h as indicated. For SMARCA2/4 half-life determination, 150,000 or 200,000 cells were seeded in 24-well plates. The next day, 50 µg/ml cycloheximide (Sigma) was added and cells were incubated for 1–24 h. For SMARCA2/4 re-synthesis measurements, 200,000 cells were seeded in 24-well plates. The next day, 100 nM compound 6 was added for 4 h to degrade SMARCA2/4, and a sample was taken as baseline for normalisation. To allow re-synthesis, a VHL binder (compound 32, 25 or 50 µM) was then added for 3 or 24 h. Medium was removed, cells were washed with PBS and lysed with 80 µl Lysis Buffer (MSD Tris Lysis Buffer (#R60TX-2) + Halt Inhibitor Cocktail (100x) + Benzonase 0.5 µL/ml). Samples were frozen at −80 °C and thawed at room temperature before use. Samples were transferred to a V-bottom plate and insoluble debris was pelleted by centrifugation for 5 min at maximum speed. The supernatant was transferred to a fresh plate. Master Mix and Ladder were prepared according to manufacturer’s instructions for 12–230 kDa Wes Separation Module, 8 × 25 capillary cartridges, Protein Simple #SM-W004 with Anti-Rabbit Detection Module for Wes, Peggy Sue or Sally Sue, Protein Simple #DM-001. 4.8 µl lysate were mixed with 1.2 µl Master Mix to achieve a protein concentration of ~0.5 µg/µl. Antibodies were diluted in Antibody Diluent II (SMARCA2 Sigma #HPA029981 RRID:AB_10602406 1:25–100, SMARCA4 Cell Signalling #49360 clone D1Q7F RRID:AB_2728743 1:15–120 or Abcam #ab110641 clone EPNCIR111A RRID:AB_10861578 1:60, GAPDH Abcam #ab9485 RRID:AB_307275 1:250). Wes plates were prepared and run according to manufacturer’s instructions. Proteins were quantified with accompanying Compass Software. SMARCA2/4 protein levels were normalised to GAPDH. […] Where applicable, curves were fitted using a 4-parametric logistic model.

[2] = tested on: NCI-H1568 cells; assay: Cell viability assay (CellTiter Glo) in NCI-H1568; format: cell-based, human; conditions: for EC50: read-out: EC50 cell proliferation (CellTiter Glo); for IC50: NCI-H1568, (18h), CellTiter Glo, individual replicates, read-out: NCI-H1568 (18h) CTG
Protocol: 500–2000 cells were seeded in white, clear bottom 96-well plates (Corning or Perkin Elmer) in 180–200 µl medium per well. The next day, compounds were added using a digital dispenser and a T0 sample was measured for reference. […], and viability (luminescence) was measured using CellTiter Glo or CellTiter Glo 2.0 (Promega) according to manufacturer’s instructions after equilibrating cells and reagents at room temperature and 10–20 min incubation time while shaking.

[3] = biological target: T2, VCB: PROTAC: SMARCA2^BD ternary complex (Homo sapiens, UniProt P51531); assay: TR-FRET ternary complex affinity and cooperativity, SMARCA2; format: binding
T2 construct: P51531-2, residues 1373-1493 with additional N-terminal SM residues; GST (TEV site) (N); His6 (TEV site) (N, cleaved yes); made in house; host or cells: SMARCA2^BD: Escherichia coli BL21(DE3)
T2 sequence (P51531 with tags, fused parts or gaps isoform P51531-2): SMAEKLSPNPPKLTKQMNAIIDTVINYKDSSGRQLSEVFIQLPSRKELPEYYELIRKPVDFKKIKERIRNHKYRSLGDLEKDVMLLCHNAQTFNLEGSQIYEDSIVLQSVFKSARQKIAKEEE

[4] = biological target: T1, SMARCA4; assay: Imaging-based SMARCA4 protein assay in RKO cells; format: cell-based; design: endogenous in cells; host or cells: RKO, HCT116, LU99, HCC-364, HCT-15, HCC4006, SK-N-AS; conditions: individual replicates
Protocol: 1250 cells per well in 60 µl medium were plated in flat bottom, poly-lysin coated 384-well plates (CellCarrier Ultra, Perkin Elmer). The next day, test compounds (10 µl of serial dilutions) and DMSO controls were diluted in DMEM medium such that the final DMSO content was <1% or were added using an ultrasound dispensing system. 4 wells were reserved for a background measurement. […] After aspirating the fixing solution, the cells were washed once with 25 µl PBS. 25 µl of blocking buffer (10% goat serum in PBS) was added and cells were incubated for 30 min, then washed once with PBS. Cells were stained with 20 µl of SMARCA2/4 primary antibody solution (Sigma #HPA029981 RRID:AB_10602406 1:1000 or Cell Signalling #52251 clone E9O6 RRID:AB_2799410 1:1000 in PBS with 10% FCS) for 2–4 h at room temperature. Cells were again washed once with PBS. […] The cell layer was then washed once with 25 µl PBS, the wells were filled with 25 µl PBS and the plates were sealed with an adhesive sheet. They were then imaged on the Opera Phoenix (mean intensity in the nucleus). Results were computed as percent of controls ((value of test compound − background)/(value of the negative control DMSO—background) multiplied by 100). EC50 values were computed using a 4-parametric logistic model.

[5] = biological target: VCB: PROTAC: SMARCA4^BD ternary complex (Homo sapiens, UniProt P40337+P51532); assay: TR-FRET ternary complex affinity and cooperativity, SMARCA4; format: binding; design: P51532, residues 1448–1569 with additional N-terminal SM residues; GST (TEV site) (N); His6 (TEV site) (N, cleaved yes); made in house; host or cells: SMARCA4^BD: Escherichia coli BL21(DE3)
Chain of VCB: PROTAC: SMARCA4^BD ternary complex (P51532 1448-1569): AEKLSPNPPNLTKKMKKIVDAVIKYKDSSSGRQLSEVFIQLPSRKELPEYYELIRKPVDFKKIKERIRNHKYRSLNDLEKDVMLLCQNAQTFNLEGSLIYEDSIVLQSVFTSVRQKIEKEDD
Chain of VCB: PROTAC: SMARCA4^BD ternary complex (P40337 54-213): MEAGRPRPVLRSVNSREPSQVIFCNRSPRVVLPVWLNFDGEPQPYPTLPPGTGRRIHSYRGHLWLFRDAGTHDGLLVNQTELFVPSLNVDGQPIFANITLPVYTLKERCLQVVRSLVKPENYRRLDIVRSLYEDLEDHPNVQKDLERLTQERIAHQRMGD
Chain of VCB: PROTAC: SMARCA4^BD ternary complex (Q15369 17-112 partner): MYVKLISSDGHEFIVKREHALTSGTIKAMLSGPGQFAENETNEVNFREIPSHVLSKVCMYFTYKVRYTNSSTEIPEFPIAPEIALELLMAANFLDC
Chain of VCB: PROTAC: SMARCA4^BD ternary complex (Q15370 1-104 partner): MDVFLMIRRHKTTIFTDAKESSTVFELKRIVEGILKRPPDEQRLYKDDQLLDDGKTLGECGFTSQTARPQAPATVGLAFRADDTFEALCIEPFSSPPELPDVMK

[6] = binary, PROTAC alone, individual replicates, read-out: SMARCA2 BD EC50
[7] = 4h, read-out: RKO (4h) SMARCA4 DC50
[8] = 18h, read-out: RKO (18h) SMARCA4 DC50
[9] = PROTAC + VCB, individual replicates, read-out: Ternary SMARCA4 BD EC50 (PROTAC + VCB)

SMILES | DC50 ([1]; RKO (4 h)) [µM] | DC50 ([1]; RKO (18 h)) [µM] | Dmax ([1]; RKO, RKO (18 h)) [%] | EC50 ([2]; Homo sapiens, NCI-H1568, […]) [µM] | IC50 [2] | EC50 ([3]; TR-FRET competition for SMARCA2BD, without VCB, mean ± SD, read-out: TR-FRET SMARCA2BD EC50) [µM] | EC50 [3, 6] | DC50 [4, 7] [µM] | DC50 [4, 8] | EC50 [5, 9] | EC50 ([5]; TR-FRET competition for SMARCA4BD, + VCB, mean ± SD, read-out: TR-FRET Ternary SMARCA4BD EC50 (PROTAC + VCB)) [µM] | EC50 ([2]; NCI-H1568 ([…]), mean ± SD) [µM]
Cc1ncsc1-c1ccc([C@H](CC[C@H](C)CCN2CCC(c3ccc4c(c3)n(C3CCCC3)c3nc(=O)c5c(Br)cccc5n43)CC2)NC(=O)[C@@H]2C[C@H](O)CN2C(=O)[C@@H](NC(=O)C2(F)CC2)C(C)(C)C)cc1 [compound 12] | > 25 | 5.83 | 94 ± 7 | 0.236 ± 0.175 | 0.411 µM and 0.372 µM and 0.0859 µM | 0.203 ± 0.065 | 0.125 µM and 0.272 µM and 0.263 µM and 0.154 µM | > 25 | 4.95 µM and 4.74 µM and 8.1 µM and 6.07 µM | > 0.4 µM and 0.385 µM and 0.314 µM | 0.367 ± 0.038 | –
CN1CCN(c2nc(=O)c3c(Cl)cccc3o2)CC1 [compound 13] | > 25 | > 25 | – | – | > 10 µM | – | > 10 µM | > 25 | > 25 µM | > 10 µM | – | > 10
CN1CCN(c2nc(=O)c3ccccc3o2)CC1 [compound 14] | > 25 | > 25 | – | – | > 10 µM | – | > 10 µM | > 25 | > 25 µM | > 10 µM | – | > 10
CN1CCN(c2nc(=O)c3c(Br)cccc3o2)CC1 [compound 15] | > 25 | > 25 | – | – | > 10 µM | – | > 10 µM | > 25 | > 25 µM | > 10 µM | – | > 10
CN1CCN(c2nc(=O)c3c(I)cccc3o2)CC1 [compound 16] | > 25 | > 25 | – | – | > 10 µM | – | > 10 µM | > 25 | > 25 µM | > 10 µM | – | > 10
